The source made the active and inactive calls. No cut-off for these calls is given here. *1 amine or outer side, *2 acyl side, *3 side chain or, on linkers, in order; H or OH if unused. Where a SMILES comes first, the peptide text is derived from it. Bridges are numbered along the chain shown (N, C = ends). [ ]: non-standard residue; d: D form. Gly(pent-4-enyl) = C=CCCC[C@H](N)C(=O)O; Octanediyl(1,8) = C(CCCC[*:2])CCC[*:1]; S5 = C=CCCC[C@](C)(N)C(=O)O; X2 = C(CCC[*:2])CC[*:1]; X4 = C(CC[*:2])C[*:1]
Legend:
[1] = test system: NIH3T3; assay: Inhibition of TGF-beta1-induced EMT in mouse NIH3T3 cells assessed as decrease in alpha-SMA level at 10 uM incubated for 48 hrs by Western blot analysis; format: functional, cell-based
[2] = test system: NIH3T3; assay: Inhibition of TGF-beta1-induced EMT in mouse NIH3T3 cells assessed as decrease in fibronectin level at 10 uM incubated for 48 hrs by Western blot analysis; format: functional, cell-based
[3] = test system: NIH3T3; assay: Cytotoxicity against mouse NIH3T3 cells assessed as inhibition of cell viability up to 160 uM incubated for 48 hrs by CCK8 assay; format: toxicity, cell-based; settings: nih3t3, 48 h
[4] = Half life of compound; format: physicochemical
[5] = Stability in C57BL/6J mouse serum assessed as proteolysis resistance measured up to 72 hrs by HPLC analysis; format: ADME, cell-free
[6] = test system: NIH3T3; assay: Cytotoxicity against mouse NIH3T3 cells assessed as inhibition of cell viability at 10 to 40 uM incubated for 48 hrs by CCK8 assay; format: toxicity, cell-based; settings: nih3t3, 48 h, dose 10-40 µM

Molecule	inhibition [1]	inhibition [2]	Activity [3]	half-life [4] [h]	Stability [5]	Activity [6]
C=CCCC[C@](C)(NC(=O)[C@H](Cc1c[nH]cn1)NC(=O)[C@@H](CC(=O)O)NC(=O)CCCCCCCCCCCCCCC)C(=O)N[C@H](CC(N)=O)C(=O)N1CCC[C@H]1C(=O)N[C@@H](CCC(N)=O)C(=O)N[C@H](C)C(=O)N[C@@H](CCCNC(=N)N)C(N)=O	Active	Active	Toxic	–	–	–
H-HNNPQIRD-OH	–	–	Non-toxic	0.57	–	–
C=CCCC[C@](C)(NC(=O)[C@H](Cc1c[nH]cn1)NC(=O)[C@@H](CC(=O)O)NC(=O)CCCCCCCCCCC)C(=O)N[C@H](CC(N)=O)C(=O)N1CCC[C@H]1C(=O)N[C@@H](CCC(N)=O)C(=O)N[C@H](C)C(=O)N[C@@H](CCCNC(=N)N)C(N)=O	Active	Active	Toxic	–	–	–
CC[C@H](C)[C@@H]1NC(=O)[C@H](CCC(N)=O)NC(=O)[C@@H]2CCCN2C(=O)[C@@H](NC(=O)[C@H](CC(N)=O)NC(=O)[C@H](Cc2c[nH]cn2)NC(=O)[C@@H](N)CC(=O)O)CSCCCCCCCCSC[C@@H](C(N)=O)NC1=O (H-DHNCPQIC-NH2; linker 4-8 via Octanediyl(1,8))	Active	Active	Non-toxic	2.01	Unstable	–
C=CCCC[C@](C)(NC(=O)[C@H](Cc1c[nH]cn1)NC(=O)[C@@H](CC(=O)O)NC(=O)CCCCCCCCCCC)C(=O)N[C@H]1CSCCCCCCSC[C@@H](C(N)=O)NC(=O)[C@@H](C)NC(=O)[C@H](CCC(N)=O)NC(=O)[C@@H]2CCCN2C1=O	Active	Active	Toxic	91.6	Stable	–
C[C@@H](NC(=O)[C@H](CCC(N)=O)NC(=O)[C@@H]1CCCN1C(=O)[C@@H](CC(N)=O)NC(=O)[C@H](Cc1ccccc1)NC(=O)[C@H](Cc1c[nH]cn1)NC(=O)[C@H](N)CC(=O)O)C(=O)N[C@@H](CCCNC(=N)N)C(N)=O	Active	Active	Non-toxic	102	–	–
C=CCCC[C@](C)(NC(=O)[C@@H](C)NC(=O)[C@H](CCC(N)=O)NC(=O)[C@@H]1CCCN1C(=O)[C@](C)(CCCC=C)NC(=O)[C@H](CC(N)=O)NC(=O)[C@H](Cc1c[nH]cn1)NC(=O)[C@@H](CC(=O)O)NC(=O)CCCCCCCCCCC)C(N)=O	Active	Active	–	656	Stable	Toxic
C=CCCC[C@](C)(NC(=O)[C@@H](NC(=O)[C@H](CCC(N)=O)NC(=O)[C@@H]1CCCN1C(=O)[C@](C)(CCCC=C)NC(=O)[C@H](CC(N)=O)NC(=O)[C@H](Cc1c[nH]cn1)NC(=O)[C@@H](N)CC(=O)O)[C@@H](C)CC)C(N)=O (H-DHN[S5]PQI[S5]-NH2)	Active	Active	Non-toxic	5.67	Stable	–
CC[C@H](C)[C@@H]1NC(=O)[C@H](CCC(N)=O)NC(=O)[C@@H]2CCCN2C(=O)[C@@](C)(NC(=O)[C@H](CC(N)=O)NC(=O)[C@H](Cc2c[nH]cn2)NC(=O)[C@@H](N)CC(=O)O)CCC/C=C/CCC[C@@](C)(C(N)=O)NC1=O (H-DHN[S5]PQI[S5]-NH2; staple (E) 4-8)	inactive	inactive	Non-toxic	12.3	Stable	–
C[C@@]1(C(=O)N[C@@H](CCCNC(=N)N)C(N)=O)CCC/C=C\CCC[C@](C)(NC(=O)[C@H](Cc2cnc[nH]2)NC(=O)[C@@H](N)CC(=O)O)C(=O)N[C@@H](CC(N)=O)C(=O)N2CCC[C@H]2C(=O)N[C@@H](CCC(N)=O)C(=O)N1 (H-DH[S5]NPQ[S5]R-NH2; staple (Z) 3-7)	inactive	inactive	Non-toxic	1.11	Stable	–
CC[C@H](C)[C@H](NC(=O)[C@H](Cc1c[nH]cn1)NC(=O)[C@H](N)CC(=O)O)C(=O)N[C@H](CC(N)=O)C(=O)N1CCC[C@H]1C(=O)N[C@@H](CCC(N)=O)C(=O)N[C@H](C)C(=O)N[C@@H](CCCNC(=N)N)C(N)=O	Active	Active	Non-toxic	125	–	–
C=CCCC[C@H](NC(=O)[C@H](CCC(N)=O)NC(=O)[C@@H]1CCCN1C(=O)[C@H](CC(N)=O)NC(=O)[C@](C)(CCCC=C)NC(=O)[C@H](Cc1c[nH]cn1)NC(=O)[C@@H](N)CC(=O)O)C(=O)N[C@@H](CCCNC(=N)N)C(N)=O (H-DH[S5]NPQ[Gly(pent-4-enyl)]R-NH2)	Active	Active	Non-toxic	0.9	Stable	–
C[C@@H](NC(=O)[C@H](CCC(N)=O)NC(=O)[C@@H]1CCCN1C(=O)[C@@H](CC(N)=O)NC(=O)[C@H](CC(N)=O)NC(=O)[C@H](Cc1c[nH]cn1)NC(=O)[C@H](N)CC(=O)O)C(=O)N[C@@H](CCCNC(=N)N)C(N)=O	Active	Active	Non-toxic	101	–	–
C=CCCC[C@](C)(NC(=O)[C@H](Cc1c[nH]cn1)NC(=O)[C@@H](N)CC(=O)O)C(=O)N[C@H]1CSCCCCSC[C@@H](C(N)=O)NC(=O)[C@H]([C@@H](C)CC)NC(=O)[C@H](CCC(N)=O)NC(=O)[C@@H]2CCCN2C1=O (H-DH[S5]CPQIC-NH2; linker 4-8 via X4)	Active	Active	Non-toxic	54.1	–	–
CC[C@H](C)[C@H](NC(=O)[C@H](CCC(N)=O)NC(=O)[C@@H]1CCCN1C(=O)[C@H](CS)NC(=O)[C@H](CC(N)=O)NC(=O)[C@H](Cc1c[nH]cn1)NC(=O)[C@@H](N)CC(=O)O)C(=O)N[C@@H](CS)C(N)=O (H-DHNCPQIC-NH2)	–	–	Non-toxic	3.82	Stable	–
C=CCCC[C@](C)(NC(=O)[C@H](Cc1c[nH]cn1)NC(=O)[C@H](N)CC(=O)O)C(=O)N[C@H](CC(N)=O)C(=O)N1CCC[C@H]1C(=O)N[C@@H](CCC(N)=O)C(=O)N[C@H](C)C(=O)N[C@@H](CCCNC(=N)N)C(N)=O	Active	Active	Non-toxic	129	–	–
C=CCCC[C@](C)(NC(=O)[C@H](CCC(N)=O)NC(=O)[C@@H]1CCCN1C(=O)[C@@H](CC(N)=O)NC(=O)[C@](C)(CCCC=C)NC(=O)[C@H](Cc1c[nH]cn1)NC(=O)[C@@H](CC(=O)O)NC(=O)CCCCCCCCCCC)C(=O)N[C@@H](CCCNC(=N)N)C(N)=O	Active	Active	–	208	Stable	Toxic
C[C@@H](NC(=O)[C@H](CCC(N)=O)NC(=O)[C@@H]1CCCN1C(=O)[C@@H](CC(N)=O)NC(=O)[C@H](CCCCN)NC(=O)[C@H](Cc1c[nH]cn1)NC(=O)[C@H](N)CC(=O)O)C(=O)N[C@@H](CCCNC(=N)N)C(N)=O	inactive	inactive	Non-toxic	272	–	–
C=CCCC[C@](C)(NC(=O)[C@H](Cc1c[nH]cn1)NC(=O)[C@@H](CC(=O)O)NC(=O)CCCCCCCCCCCCC)C(=O)N[C@H](CC(N)=O)C(=O)N1CCC[C@H]1C(=O)N[C@@H](CCC(N)=O)C(=O)N[C@H](C)C(=O)N[C@@H](CCCNC(=N)N)C(N)=O	Active	Active	Toxic	–	–	–
CC[C@H](C)[C@@H]1NC(=O)[C@H](CCC(N)=O)NC(=O)[C@@H]2CCCN2C(=O)[C@H](CC(N)=O)NC(=O)[C@H](CC(N)=O)NC(=O)[C@H](Cc2c[nH]cn2)NC(=O)[C@H](CC(=O)O)NC(=O)[C@H](CCCNC(=N)N)NC1=O (cyclo(DHNNPQIR))	Active	Active	Non-toxic	9.97	–	–
C=CCCC[C@](C)(NC(=O)[C@H](Cc1c[nH]cn1)NC(=O)[C@@H](N)CC(=O)O)C(=O)N[C@@H](CS)C(=O)N1CCC[C@H]1C(=O)N[C@@H](CCC(N)=O)C(=O)N[C@H](C(=O)N[C@@H](CS)C(N)=O)[C@@H](C)CC (H-DH[S5]CPQIC-NH2)	–	–	Non-toxic	1.48	Stable	–
C=CCCC[C@](C)(NC(=O)[C@H](Cc1c[nH]cn1)NC(=O)[C@@H](CC(=O)O)NC(=O)CCCCCCCCCCCCCCCCC)C(=O)N[C@H](CC(N)=O)C(=O)N1CCC[C@H]1C(=O)N[C@@H](CCC(N)=O)C(=O)N[C@H](C)C(=O)N[C@@H](CCCNC(=N)N)C(N)=O	Active	Active	Toxic	–	–	–
C[C@@H](NC(=O)[C@H](CCC(N)=O)NC(=O)[C@@H]1CCCN1C(=O)[C@@H](CC(N)=O)NC(=O)[C@H](CCC(N)=O)NC(=O)[C@H](Cc1c[nH]cn1)NC(=O)[C@H](N)CC(=O)O)C(=O)N[C@@H](CCCNC(=N)N)C(N)=O	Active	Active	Non-toxic	424	–	–
C=CCCC[C@](C)(NC(=O)[C@H](Cc1c[nH]cn1)NC(=O)[C@@H](N)CC(=O)O)C(=O)N[C@H]1CSCCCCCCSC[C@@H](C(N)=O)NC(=O)[C@H]([C@@H](C)CC)NC(=O)[C@H](CCC(N)=O)NC(=O)[C@@H]2CCCN2C1=O (H-DH[S5]CPQIC-NH2; linker 4-8 via X2)	Active	Active	Non-toxic	1.81	Unstable	–

Reference: ChEMBL document CHEMBL6177971, “Iterative Optimization Yields Stapled Peptides with Superior Pharmacokinetics and Potency for Renal Fibrosis Treatment” (J Med Chem, 2025)
